Measurements from the NIST ThermoML archive (doi:10.1016/j.jct.2019.02.028).
Values joined by “and” are separate entries in the source; they are usually repeats but may differ in a detail not shown here. Equal entries are not always repeated.

Experiment: xn = mol fraction of the nth substance listed
Conditions: Gas, Burnett expansion method

C=C(F)C(F)(F)F [2,3,3,3-tetrafluoro-1-propene] + FCF
Conditions	mass density
373.17 K, 4066.8 kPa, x2 = 0.259	238.02 kg/m3
373.17 K, 4925.9 kPa, x2 = 0.874	143.64 kg/m3
373.18 K, 619.83 kPa, x2 = 0.259	20.68 kg/m3
373.18 K, 900.76 kPa, x2 = 0.449	26.92 kg/m3
373.18 K, 906.18 kPa, x2 = 0.259	31.05 kg/m3
373.18 K, 916.21 kPa, x2 = 0.874	18.76 kg/m3
373.18 K, 1093.4 kPa, x2 = 0.119	41.92 kg/m3
373.18 K, 1339 kPa, x2 = 0.874	28.18 kg/m3
373.18 K, 1863.1 kPa, x2 = 0.449	60.74 kg/m3
373.18 K, 2517.6 kPa, x2 = 0.259	105.24 kg/m3
373.18 K, 2728.4 kPa, x2 = 0.874	63.56 kg/m3
373.18 K, 3301.3 kPa, x2 = 0.259	158.31 kg/m3
373.19 K, 755.34 kPa, x2 = 0.119	27.91 kg/m3
373.19 K, 1931.1 kPa, x2 = 0.874	42.32 kg/m3
373.19 K, 2828.2 kPa, x2 = 0.119	142.15 kg/m3
373.2 K, 624.61 kPa, x2 = 0.874	12.49 kg/m3
373.2 K, 3505 kPa, x2 = 0.119	213.51 kg/m3
373.2 K, 4006.2 kPa, x2 = 0.119	320.47 kg/m3
373.2 K, 4661.9 kPa, x2 = 0.259	359.6 kg/m3
373.21 K, 1306.4 kPa, x2 = 0.259	46.64 kg/m3
378.05 K, 2079.9 kPa, x2 = 0.698	53.99 kg/m3
378.06 K, 1451.7 kPa, x2 = 0.698	35.94 kg/m3
378.07 K, 5426.1 kPa, x2 = 0.449	308.92 kg/m3
378.08 K, 622.36 kPa, x2 = 0.449	17.91 kg/m3
378.08 K, 2782.2 kPa, x2 = 0.874	63.55 kg/m3
378.08 K, 2911.8 kPa, x2 = 0.698	81.09 kg/m3
378.08 K, 3552.8 kPa, x2 = 0.449	136.97 kg/m3
378.08 K, 4525.2 kPa, x2 = 0.449	205.67 kg/m3
378.09 K, 1328.7 kPa, x2 = 0.449	40.42 kg/m3
378.09 K, 1878.5 kPa, x2 = 0.259	70.04 kg/m3
378.09 K, 2649.2 kPa, x2 = 0.449	91.19 kg/m3
378.09 K, 3936.7 kPa, x2 = 0.698	121.78 kg/m3
378.09 K, 4937.5 kPa, x2 = 0.259	358.03 kg/m3
378.09 K, 5074.6 kPa, x2 = 0.698	182.93 kg/m3
378.1 K, 678.04 kPa, x2 = 0.698	15.93 kg/m3
378.1 K, 920.5 kPa, x2 = 0.259	31.05 kg/m3
378.1 K, 997.84 kPa, x2 = 0.698	23.93 kg/m3
378.1 K, 1582.4 kPa, x2 = 0.119	62.96 kg/m3
378.1 K, 1897.6 kPa, x2 = 0.449	60.71 kg/m3
378.1 K, 2190.4 kPa, x2 = 0.119	94.57 kg/m3
378.1 K, 3832.4 kPa, x2 = 0.874	95.49 kg/m3
378.1 K, 4232.9 kPa, x2 = 0.259	237.67 kg/m3
378.1 K, 5071.5 kPa, x2 = 0.874	143.48 kg/m3
378.11 K, 629.16 kPa, x2 = 0.259	20.67 kg/m3
378.11 K, 767.1 kPa, x2 = 0.119	27.9 kg/m3
378.11 K, 914.69 kPa, x2 = 0.449	26.91 kg/m3
378.11 K, 1360.2 kPa, x2 = 0.874	28.17 kg/m3
378.11 K, 1964.7 kPa, x2 = 0.874	42.31 kg/m3
378.11 K, 2577.3 kPa, x2 = 0.259	105.22 kg/m3
378.11 K, 2909.1 kPa, x2 = 0.119	142.06 kg/m3
378.12 K, 633.28 kPa, x2 = 0.874	12.49 kg/m3
378.12 K, 929.88 kPa, x2 = 0.874	18.75 kg/m3
378.12 K, 1329.1 kPa, x2 = 0.259	46.64 kg/m3
378.12 K, 3399.6 kPa, x2 = 0.259	158.16 kg/m3
378.12 K, 3642.1 kPa, x2 = 0.119	213.38 kg/m3
378.12 K, 4237.1 kPa, x2 = 0.119	320.38 kg/m3
378.13 K, 1112 kPa, x2 = 0.119	41.91 kg/m3
382.98 K, 1475.1 kPa, x2 = 0.698	35.93 kg/m3
382.98 K, 2117.2 kPa, x2 = 0.698	53.97 kg/m3
382.99 K, 631.25 kPa, x2 = 0.449	17.91 kg/m3
383 K, 1350.2 kPa, x2 = 0.449	40.4 kg/m3
383 K, 2705.6 kPa, x2 = 0.449	91.15 kg/m3
383 K, 2835.7 kPa, x2 = 0.874	63.53 kg/m3
383 K, 3918.9 kPa, x2 = 0.874	95.42 kg/m3
383 K, 4682.2 kPa, x2 = 0.449	205.63 kg/m3
383 K, 5686.5 kPa, x2 = 0.449	308.85 kg/m3
383.01 K, 928.35 kPa, x2 = 0.449	26.9 kg/m3
383.01 K, 1476 kPa, x2 = 0.698	35.93 kg/m3
383.01 K, 2118 kPa, x2 = 0.698	53.97 kg/m3
383.01 K, 2705.6 kPa, x2 = 0.449	91.15 kg/m3
383.01 K, 2972.2 kPa, x2 = 0.698	81.06 kg/m3
383.01 K, 3646.5 kPa, x2 = 0.449	136.9 kg/m3
383.01 K, 4036.2 kPa, x2 = 0.698	121.75 kg/m3
383.01 K, 4682.4 kPa, x2 = 0.449	205.63 kg/m3
383.01 K, 5245.7 kPa, x2 = 0.698	182.87 kg/m3
383.02 K, 928.34 kPa, x2 = 0.449	26.9 kg/m3
383.02 K, 1012.8 kPa, x2 = 0.698	23.92 kg/m3
383.02 K, 1381.5 kPa, x2 = 0.874	28.16 kg/m3
383.02 K, 1914.9 kPa, x2 = 0.259	70.04 kg/m3
383.02 K, 1937.6 kPa, x2 = 0.449	60.69 kg/m3
383.02 K, 1937.7 kPa, x2 = 0.449	60.69 kg/m3
383.02 K, 2238 kPa, x2 = 0.119	94.52 kg/m3
383.02 K, 2635.6 kPa, x2 = 0.259	105.19 kg/m3
383.02 K, 2635.8 kPa, x2 = 0.259	105.19 kg/m3
383.02 K, 2972.4 kPa, x2 = 0.698	81.06 kg/m3
383.02 K, 3646.6 kPa, x2 = 0.449	136.9 kg/m3
383.02 K, 3919.7 kPa, x2 = 0.874	95.42 kg/m3
383.02 K, 4035.8 kPa, x2 = 0.698	121.75 kg/m3
383.02 K, 4396.6 kPa, x2 = 0.259	237.32 kg/m3
383.02 K, 5211.2 kPa, x2 = 0.259	356.45 kg/m3 and 356.44 kg/m3
383.02 K, 5215.7 kPa, x2 = 0.874	143.31 kg/m3
383.02 K, 5215.8 kPa, x2 = 0.874	143.31 kg/m3
383.02 K, 5245.8 kPa, x2 = 0.698	182.87 kg/m3
383.03 K, 934.81 kPa, x2 = 0.259	31.04 kg/m3
383.03 K, 1350.5 kPa, x2 = 0.449	40.4 kg/m3
383.03 K, 1351.5 kPa, x2 = 0.259	46.63 kg/m3
383.03 K, 1381.4 kPa, x2 = 0.874	28.16 kg/m3
383.03 K, 1611.8 kPa, x2 = 0.119	62.93 kg/m3
383.03 K, 1611.9 kPa, x2 = 0.119	62.93 kg/m3
383.03 K, 1915 kPa, x2 = 0.259	70.04 kg/m3
383.03 K, 1998.1 kPa, x2 = 0.874	42.29 kg/m3
383.03 K, 2238.3 kPa, x2 = 0.119	94.52 kg/m3
383.03 K, 2836.1 kPa, x2 = 0.874	63.53 kg/m3
383.03 K, 2989.1 kPa, x2 = 0.119	141.97 kg/m3
383.03 K, 3496.5 kPa, x2 = 0.259	158 kg/m3
383.03 K, 3777.6 kPa, x2 = 0.119	213.24 kg/m3
383.03 K, 4397.4 kPa, x2 = 0.259	237.31 kg/m3
383.03 K, 4464.7 kPa, x2 = 0.119	320.28 kg/m3
383.03 K, 4465 kPa, x2 = 0.119	320.28 kg/m3
383.04 K, 638.24 kPa, x2 = 0.259	20.67 kg/m3
383.04 K, 642.12 kPa, x2 = 0.874	12.48 kg/m3
383.04 K, 688.17 kPa, x2 = 0.698	15.93 kg/m3
383.04 K, 778.8 kPa, x2 = 0.119	27.9 kg/m3
383.04 K, 943.49 kPa, x2 = 0.874	18.75 kg/m3
383.04 K, 1130.2 kPa, x2 = 0.119	41.9 kg/m3
383.04 K, 1998.1 kPa, x2 = 0.874	42.29 kg/m3
383.04 K, 2989.2 kPa, x2 = 0.119	141.97 kg/m3
383.04 K, 3777.7 kPa, x2 = 0.119	213.24 kg/m3
383.05 K, 943.52 kPa, x2 = 0.874	18.75 kg/m3
383.05 K, 3496.8 kPa, x2 = 0.259	158 kg/m3
383.06 K, 935.34 kPa, x2 = 0.259	31.04 kg/m3
383.06 K, 1130.4 kPa, x2 = 0.119	41.9 kg/m3
